Earlier results in patent US20080145318A1, “ATOMOXETINE FORMULATIONS AND ASSOCIATED METHODS” (priority 2006, published 2008).

Key:
[1] = tested on: other receptor systems; conditions: in words
[2] = target: norepinephrine reuptake transporter (Homo sapiens, UniProt P23975); conditions: relative to atomoxetine, in words
[3] = target: serotonin reuptake (Homo sapiens, UniProt P31645); conditions: in words
Chain of serotonin reuptake (P31645 whole entry): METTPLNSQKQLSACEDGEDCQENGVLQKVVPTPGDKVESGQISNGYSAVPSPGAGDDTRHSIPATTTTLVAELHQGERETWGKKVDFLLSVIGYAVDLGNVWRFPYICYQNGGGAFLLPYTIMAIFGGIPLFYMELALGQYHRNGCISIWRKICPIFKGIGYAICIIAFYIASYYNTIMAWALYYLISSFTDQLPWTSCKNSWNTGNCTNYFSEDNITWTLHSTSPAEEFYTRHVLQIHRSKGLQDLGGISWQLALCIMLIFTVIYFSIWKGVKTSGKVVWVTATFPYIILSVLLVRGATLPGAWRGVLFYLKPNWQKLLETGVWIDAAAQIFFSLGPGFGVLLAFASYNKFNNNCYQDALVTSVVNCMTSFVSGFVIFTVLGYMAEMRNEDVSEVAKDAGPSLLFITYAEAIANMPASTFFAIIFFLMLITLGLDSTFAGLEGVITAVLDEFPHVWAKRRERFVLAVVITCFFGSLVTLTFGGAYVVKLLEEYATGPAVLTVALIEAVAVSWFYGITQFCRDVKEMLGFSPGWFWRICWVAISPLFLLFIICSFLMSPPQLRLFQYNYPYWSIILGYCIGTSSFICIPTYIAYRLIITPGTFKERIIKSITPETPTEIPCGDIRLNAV

Chain of norepinephrine reuptake transporter (P23975 whole entry): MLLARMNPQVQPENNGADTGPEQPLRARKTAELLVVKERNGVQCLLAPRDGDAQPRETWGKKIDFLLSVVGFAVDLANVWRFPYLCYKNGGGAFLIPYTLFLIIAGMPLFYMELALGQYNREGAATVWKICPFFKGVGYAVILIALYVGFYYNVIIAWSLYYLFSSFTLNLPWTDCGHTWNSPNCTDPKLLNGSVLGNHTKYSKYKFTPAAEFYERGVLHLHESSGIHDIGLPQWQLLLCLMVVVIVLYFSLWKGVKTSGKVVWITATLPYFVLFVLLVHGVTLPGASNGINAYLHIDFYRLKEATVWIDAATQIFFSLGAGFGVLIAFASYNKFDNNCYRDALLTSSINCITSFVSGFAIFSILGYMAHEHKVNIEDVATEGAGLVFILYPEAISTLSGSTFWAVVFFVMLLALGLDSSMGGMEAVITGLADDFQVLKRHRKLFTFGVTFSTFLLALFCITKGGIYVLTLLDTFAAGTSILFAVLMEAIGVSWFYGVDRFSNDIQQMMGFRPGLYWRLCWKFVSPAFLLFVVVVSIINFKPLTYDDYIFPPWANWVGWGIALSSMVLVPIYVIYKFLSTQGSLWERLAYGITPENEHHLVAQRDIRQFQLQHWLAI

**Q.** What does the source list for `CNCCC(Oc1ccccc1C)c1ccccc1` (single isomer, unassigned; (-)) [atomoxetine, (−)-N-methyl-3-phenyl-3-(o-tolyloxy)-propylamine]?
**A.** plasma half-life (individuals having normal activity in the CYP2D6 pathway): about 5 hours; half-life (individuals having reduced activity in the CYP2D6 pathway (poor metabolizers)): about 24 hours

**Q.** With `Cc1cc(O)ccc1OC(CCN)c1ccccc1` (centres unmarked) [4H-NDA, N-desmethyl-4-hydroxyatomoxetine] as the molecule, how does the “affinity to other receptor systems” value [1] read?
**A.** The value was “little affinity”.

**Q.** What about the “inhibitory activity to the norepinephrine reuptake transporter compared to atomoxetine” value [2] of the same molecule?
**A.** The value was “less active”.

**Q.** What does the source list for `CNCCC(Oc1ccc(O)cc1C)c1ccccc1` (centres unmarked) [4HA, 4-hydroxyatomoxetine]?
**A.** affinity to other receptor systems [1]: little affinity; serotonin reuptake inhibitor activity [3]: pharmacologically active

**Q.** What does the source list for `Cc1ccccc1OC(CCN)c1ccccc1` (centres unmarked) [NDA, N-desmethylatomoxetine]?
**A.** affinity to other receptor systems [1]: little affinity; inhibitory activity to the norepinephrine reuptake transporter compared to atomoxetine [2]: less active
